Assay results published in paper PMC3891892 (Nature, 2013).
In brackets after ≈: the same amount, converted by molar mass.

Columns and labels:
[1] = system: recombinant virus possessing Hangzhou/1 HA; format: binding, influenza A virus (H7N9)
CA04 = system: CA04; parameters: species or system mice; details: mouse, in vivo, po
[2] = system: CA04 (A/California/04/2009; H1N1); test: microbe, parasite or virus in culture; format: cell-based; details: Influenza A virus, H1N1, MDCK, read-out: IC50, plaque reduction assay

CC(=O)N[C@H]1[C@H]([C@H](O)[C@H](O)CO)OC(C(=O)O)=C[C@@H]1N=C(N)N [Zanamivir, zanamivir]
effect of inhibition of NA enzymatic function on glycan binding [1]: substantial increases in binding to α2–3 linked sialosides

NC(=O)c1nc(F)c[nH]c1=O [favipiravir]
therapeutic effectiveness (CA04): clear therapeutic effectiveness | IC50 [2]: 1.2 mg/L (≈ 7.64 µM)
